Measurements from US20240261317A1, “METHODS OF TREATING MEDICAL CONDITIONS AND INHIBITING LINE1 REVERSE TRANSCRIPTASEUSING A SUBSTITUTED 4-FLUORO-2,5-DIHYDROFURANYL PHOSPHONIC ACID OR RELATED COMPOUND” (ROME Therapeutics, Inc., priority 2021, published 2024).
Blank lines part the entries; values can stand above or below the molecule they belong to.

Assays:
[1] = target: T1, LINE1 reverse transcriptase (Homo sapiens, UniProt O00370); assay: Stable artificial-intron Cis LINE1 reporter assay in HeLa Tet-On 3G cells; assay type: cell-based; set-up: expressed in transfected cells; host or cells: HeLa Tet-On 3G (Takara, cat no 631183)
Excerpt: A stable HeLa Tet-On 3G (Takara, cat no 631183) cell line expressing a bi-directional inducible LINE1 construct was generated as described in Xie, Y. et al. “Cell division promotes efficient retrotransposition in a stable L1 reporter cell line,” Mobile DNA (2013) 4:10. Single cell clones were screened for high Luciferase expression and the highest expression Firefly expressing clone was chosen for compound testing.
Test compounds were serially diluted in DMSO and spotted in 96-well plates. Subsequently the HeLa L1 artificial-intron reporter cells were plated into the compound-containing wells (8,000 cells/well), and the cells were induced for reporter expression with doxycycline (Sigma cat no D9891) at a final concentration of 500 ng/mL. Luminescence was measured 72 h after plating using the Dual-Glo Luciferase Assay System (Promega cat no E2940) following the manufacturer's instructions. The Firefly Luciferase activity was used to report LINE1 activity.

[2] = target: T1, LINE1 reverse transcriptase; assay: Transient artificial-intron Cis LINE1 reporter assay (FLuc/RLuc ratio); assay type: cell-based; set-up: expressed in transfected cells; conditions: HEK 293 cells
Experimental: (§1) Intron-disrupted Firefly luciferase (FLuc) expression cassettes were generated as described by Xie, Y. et al. “Characterization of L1 retrotransposition with high-throughput dual-luciferase assays,” Nucleic Acid Res. (2011) Vol. 39, No. 3, e16. In addition, the plasmid contained an intact Renilla luciferase (RLuc) expression cassette on the vector backbone, in order to normalize transfection efficiency and measure potential cell toxicity.
(§2) HEK 293 cells were seeded in 96-well plates at 1,000 cells/well in 55 μL and grown for 24 hours. Cells were transfected with FuGeneHD (Promega) following the manufacturer's protocol. Each well received 0.133 ng plasmid, 0.4 μL FuGeneHD reagent, and 4.5 μL GlutaMAX-I-supplemented Opti-MEM I reduced-serum medium (Invitrogen). Cells were simultaneously treated with test compound serially diluted starting at 100 μM in a 3-fold dilution dose response.
(§3) Luminescence was measured using the Dual-Glo Luciferase Assay System (Promega) following the manufacturer's instructions. The ratio between FLuc and RLuc gene expression was used to report LINE1 activity.

[3] = target: T2, recombinant MBP-tagged LINE1 protein (238-1061) (Homo sapiens, UniProt O00370); assay: Homogeneous time-resolved fluorescence (HTRF) LINE1 RT assay; assay type: biochemical; conditions: tested as tri(ammonium) salt, read-out: IC50 for inhibition of LINE1 reverse transcriptase
T2 construct: recombinant MBP-tagged LINE1 protein (238-1061); made in house
Experimental: The LINE1 reverse transcriptase homogeneous time-resolved fluorescence (HTRF) assay was performed with recombinant MBP-tagged LINE1 protein (238-1061) (generated and purified according to procedures in Dai L. et al. BMC Biochemistry 2011; 12:18) in a 384-well format. Test compound was serially diluted in DMSO and further diluted in the assay buffer (50 mM Tris-HCl, 50 mM KCl, 10 mM MgCl2, 10 mM DTT, pH 8.1) to achieve a final DMSO concentration of 1%. The serially diluted compound was mixed with 64 ng/well of LINE1 enzyme, 5 nM of pre-annealed template/biotin-primer pair (synthesized at Generay Biotechnology), 10 nM of Fluorescein-12-dATP fluorescent probe (Perkin Elmer), and 1 μM dGTP/dCTP/dTTP (Thermo Fisher Scientific) in the assay buffer. The template/biotin-primer sequences were as follows:
(§4) After incubating at 25° C. for 60 minutes, the detection reagent (20 mM EDTA with streptavidin-terbium cryptate, Cisbio Bioassay) in the PPI buffer (Cisbio Bioassay) was added, and the mixture was incubated at 25° C. for 30 minutes. At the end of the incubation, fluorescence was read at ex/em=337/485 nm and ex/em=337/520 nm on an Envision 2104 plate reader (Perkin Elmer). The fluorescence ratio at 520/485 nm was used for the calculation. […] The IC50 was calculated by fitting the compound dose inhibition curve with a 4-parameter non-linear regression equation.

[4] = target: T3, HERV-K reverse transcriptase (2-596)-8His protein (Homo sapiens, UniProt V9H0F6); assay: Homogeneous time-resolved fluorescence (HTRF) HERV-K RT assay; assay type: biochemical; conditions: tested as tri(ammonium) salt, read-out: IC50 for inhibition of HERV-K reverse transcriptase
T3 construct: fused on or other part: C-terminal 8His tag
T3 sequence (V9H0F6 entry or part of it): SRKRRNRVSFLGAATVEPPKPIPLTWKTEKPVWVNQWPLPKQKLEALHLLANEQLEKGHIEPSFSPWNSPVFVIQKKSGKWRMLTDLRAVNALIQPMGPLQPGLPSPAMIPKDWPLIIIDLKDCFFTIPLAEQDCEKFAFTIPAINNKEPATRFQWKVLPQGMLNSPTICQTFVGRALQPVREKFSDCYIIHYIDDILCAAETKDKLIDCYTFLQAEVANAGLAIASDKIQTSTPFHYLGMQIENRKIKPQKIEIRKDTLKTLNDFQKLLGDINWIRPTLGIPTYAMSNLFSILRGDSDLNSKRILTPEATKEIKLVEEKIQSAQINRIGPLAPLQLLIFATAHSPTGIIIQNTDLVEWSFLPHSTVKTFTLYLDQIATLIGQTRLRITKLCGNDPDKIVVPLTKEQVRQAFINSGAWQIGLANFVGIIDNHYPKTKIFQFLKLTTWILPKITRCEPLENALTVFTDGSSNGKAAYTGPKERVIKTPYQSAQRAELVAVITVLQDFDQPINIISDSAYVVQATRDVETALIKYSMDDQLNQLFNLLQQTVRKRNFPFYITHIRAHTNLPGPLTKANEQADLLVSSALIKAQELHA
Experimental: The HERV-K reverse transcriptase homogeneous time-resolved fluorescence (HTRF) assay was performed in a 384-well format with HERV-K reverse transcriptase (2-596)-8His protein. Baculoviruses were created using Bac-to-Bac technology (Invitrogen). pFastBac donor plasmids containing HERV-K reverse transcriptase sequence (NCBI GenBank number AAC63291.1, J. Virology (1999) Vol. 73, No. 3, pp. 2365-2375) were transformed into DH10 Bac cells following the manufacturer's instructions. Recombinant bacmids were then isolated clonally and transfected into SF9 cells with lipofectin. HERV-K reverse transcriptase was expressed in the SF9 insect cells and then purified using immobilized metal affinity chromatography (IMAC) followed by size-exclusion chromatography (SEC). […]
as §4, with “30” for “60”, “20” for “(20”, “cryptate (Cisbio” for “cryptate, Cisbio”, “60” for “30”

[5] = tested on: HEK 293 cells; assay: Transient LINE1 reporter assay, Renilla luciferase (RLuc) control readout for potential cell toxicity; assay type: cell-based; conditions: even at the highest dose tested (100 μM), FIG. 1
Experimental: as §1, §2, §3

[6] = HeLa L1 artificial-intron reporter cells, doxycycline induced, 72 h, Firefly luciferase, read-out: IC50
[7] = transient LINE1 reporter, Table 5 of Example 1, read-out: IC50

IC50 [1, 6]: > 500 nM
Structure (SMILES): Nc1nc(F)nc2c1ncn2[C@@H]1O[C@H](OCP(=O)(O)O)C=C1F [Compound V-1, sodium ((((2R,5R)-5-(6-amino-2-fluoro-9H-purin-9-yl)-4-fluoro-2,5-dihydrofuran-2-yl)oxy)methyl)phosphonate]

Structure (SMILES): CCOC(=O)[C@H](C)NP(=O)(CO[C@@H]1C=C(F)[C@H](n2cnc3c(N)nc(F)nc32)O1)Oc1ccccc1 (stereo partly drawn) [Compound V-2, ethyl (2S)-2-[({[(2R,5R)-5-(6-amino-2-fluoropurin-9-yl)-4-fluoro-2,5-dihydrofuran-2-yl]oxy}methyl(phenoxy)phosphoryl)amino]propanoate]
IC50 [1]: > 500 nM

Structure (SMILES): CCOC(=O)[C@H](C)N[P@](=O)(CO[C@@H]1C=C(F)[C@H](n2cnc3c(N)ncnc32)O1)Oc1ccccc1 [II-1, ethyl ((S)-((((2R,5R)-5-(6-amino-9H-purin-9-yl)-4-fluoro-2,5-dihydrofuran-2-yl)oxy)methyl)(phenoxy)phosphoryl)-L-alaninate]
IC50 [2, 7]: < 50 nM
IC50 [1, 6]: < 50 nM

Structure (SMILES): CCOC(=O)[C@H](C)N[P@@](=O)(CO[C@@H]1C=C(F)[C@H](n2cnc3c(N)ncnc32)O1)Oc1ccccc1 [II-2, ethyl ((R)-((((2R,5R)-5-(6-amino-9H-purin-9-yl)-4-fluoro-2,5-dihydrofuran-2-yl)oxy)methyl)(phenoxy)phosphoryl)-L-alaninate]
IC50 [2, 7]: < 50 nM
IC50 [1, 6]: < 50 nM

IC50 [1, 6]: > 500 nM
Structure (SMILES): Nc1ncnc2c1ncn2[C@@H]1O[C@H](OCP(=O)(O)O)C=C1F [III-1, Sodium ((((2R,5R)-5-(6-amino-9H-purin-9-yl)-4-fluoro-2,5-dihydrofuran-2-yl)oxy)methyl)phosphonate]

IC50 [3]: 100 nM
IC50 [4]: 120 nM
Structure (SMILES): Nc1ncnc2c1ncn2[C@@H]1O[C@H](OCP(=O)(O)OP(=O)(O)OP(=O)(O)O)C=C1F [IV-1]

IC50 ([2]; transient transfection, FIG. 1, read-out: IC50 for inhibition of FLuc (FF/RR)): 1000 nM
Structure (SMILES): Nc1ncnc2c1ncn2[C@@H]1O[C@H](OCP(=O)(O)O)C=C1F [Test Compound]
impact on RLuc expression (Renilla) [5]: without any material impact
